In patent US20160199380A1, “Sigma Ligands For the Prevention or Treatment of Pain Induced by Chemotherapy” (Laboratorios del Dr. Esteve, S.A., priority 2009, published 2016):
Each block holds one compound with its values, some of them ahead of it.

Legend:
[1] = system: paclitaxel-induced mechanical allodynia; experiment: Electronic Von Frey (Dynamic Plantar Aesthesiometer), paclitaxel-induced mechanical allodynia in mice; type: in vivo, CD-1 mice
Procedure: (§1) Experiments were performed in CD-1 mice (Charles River, U.S.A.) with at least n=10/experimental group. […] Control animals received the same volume of solvent (a mixture of ethanol and cremophor EL)
(§2) Mechanical allodynia was evaluated with an electronically driven Von Frey filament (Dynamic Plantar. Aesthesiorneter, Ugo Basile, Varese, Italy) as previously described (Nieto et al., Pain, 2008, 137(3), 520-31), and cold allodynia was evaluated using the acetone drop method (Nieto et al., Pain, 2008, 137(3), 520-31). […] In addition, in order to study the influence of the sigma 1 receptor in this process the difference in development of allodynia was determined using wild-type mice and sigma 1-receptor knock-out-mice.
Therefore, the cumulative dose was 10 mg/kg per mouse. In the control group the vehicle of paclitaxel was administered following the same schedule.
Compound 63 was dissolved in normal saline just before administration and applied at doses of 8, 16, 32 or 64 mg/kg subcutaneously.
The effects of Compound 63 on paclitaxel-induced neuropathic pain were examined in two different ways. […] The response of the animals to the different nociceptive stimuli was tested subsequently during 2-4 weeks, depending on the test (see below), without any additional treatment. Each animal was tested only in one nociceptive model. To test the effect of compound 63 on the expression of paclitaxel-induced pain, a single compound 63 injection was performed on day 10, a day of maximum expression of mechanical allodynia or cold aliodynia (see figures for details). Each animal received only one dose of compound 63 and was tested in only one nociceptive model.
Procedure for assessment of mechanical allodynia. To assess mechanical allodynia, paw withdrawal thresholds were measured using a Dynamic Plantar Aesthesiometer (Ugo Basile, Italy). The electronic Von Frey device employs a single nonflexible filament which applies a progressively increasing force (from 0 to 10 g) against the plantar surface of the hind paw over a 20 a period. […] The day of the experiment, mice were placed individually in test compartments (9×9×14 cm) with a wire mesh bottom and allowed to acclimatize to them for 2 h. After habituation, each mouse was tested three times alternately in each hind paw.
On that day, paw withdrawal latency was recorded immediately before (time 0) and at several times (30, 60, 90, 120 and 180 min) after the injection of compound 63 or saline.

[2] = system: paclitaxel-induced cold allodynia; experiment: Acetone test, paclitaxel-induced cold allodynia in mice; type: in vivo, CD-1 mice
Procedure: as §1, §2
Therefore, the cumulative dose was 10 mg/kg per mouse. […]
The response of the animals to the different nociceptive stimuli was tested subsequently during 2-4 weeks, depending on the test (see below), without any additional treatment. Each animal was tested only in one nociceptive model. […] Each animal received only one dose of compound 63 and was tested in only one nociceptive model.
Procedure for assessment of cold allodynis. Cold allodynia was tested as previously described by Nieto et al., Pain, 2008, 137(3), 520-31, by gently touching the plantar skin of the hind paws with an acetone bubble formed with a syringe connected to a thin polyethylene tube. The mice were housed and habituated for 30 min in transparent plastic boxes (7×7×13 cm) with a floor made of wire mesh. After the adaptation period, acetone was applied alternately three times to each paw at intervals of 30 s, and the duration of licking or biting were recorded. A small mirror was placed behind the chambers to allow clear observation of the paws. The time spent licking or biting the paw was recorded by a stopwatch and represented as the cumulative time of licking/biting in the six measurements. Since licking persisting more than 10 s in the experiments was very unusual, a cut-off time of 10 s was used for each trial.
Therefore, the day 10, after the habituation period to the apparatus, baseline latencies were recorded, 30 min later compound 63 or saline was injected s.c. and paw withdrawal latencies were assessed again 60, 120 and 180 minutes after the injection.
(§3) On that day, duration of hind paw licking/biting was recorded immediately before (time 0) and at several times (60, 120 and 180 min) after the injection of compound 63 or saline.
as §3

[3] = system: Cisplatin-induced mechanical allodynia; type: in vivo, Wistar rats; settings: rats
Procedure: Male Wistar rats (250-300 g) were obtained from Harlan-lberica (Barcelona, Spain). Upon arrival to our laboratory, animals were stored in standard transparent cages (40×28×25 cm) in environmentally controlled conditions (temperature=20° C,; humidity=60%) with a 12 h light/12 h dark cycle (lights on between 08:00 and 20:00 h). Animals were allowed free access to tap water and standard laboratory rat chow (Harlan-lberica, Barcelona, Spain).
Prior to the experiment, rats were habituated to isolation. Rats received intraperitoneal injections one day per week for 5 weeks of cisplatin (1 mg/kg)+vehicle (control group for acute treatment) or cisplatin (1 mg/kg)+compound 63 (25 mg/kg). The last week (day 36) control group received an acute administration of 64 mg/kg of compound 63.
Mechanical allodynia was assessed before cisplatin administration (basal) and at the end of each experimental week (w1, w2, w3, w4). For the acute evaluation of compound 63 (w5), the mechanical allodynia was assessed 50 minutes after drug administration. On those days, rats were placed individually on an elevated iron mesh in a clear plastic cage and were allowed to adapt to the testing environment for at least 10 min. Habituation to this environment was also performed on the two days before assessment. […] Only robust and immediate withdrawal responses from the stimulus were recorded. […]

[4] = system: Oxaliplatin-induced cold allodynia; experiment: Acetone test, chronic model of oxaliplatin-induced neuropathy in rats; type: in vivo, Sprague-Dawley rats; settings: for reaction time of paw withdrawal (acetone test), curative treatment: throughout the study; for decrease in the reaction time of paw withdrawal as compared to the HPMC/distilled water-treated group: oxaliplatin 3 mg/kg i.p. 3 times a week + 0.5% HPMC
Procedure: Sixty male Sprague-Dawley rats (CERJ, France), weighing 136-169 g at the beginning of the experimental phase (first administration of compounds on D-2), were used. Rats were housed in a temperature (19.5° C.-24.5° C.) and relative humidity (45%-65%) controlled room with a 12 h—light/dark cycle, with ad libitum access to standard pelleted laboratory chow and water throughout the study.
All treatments were administered in a coded order when it is possible.
Animals were tested 2 times during treatment with compound 63 (i.e. D8 and D15) and once 24 h after completion of treatment with compound 63 (i.e. D16).
During the testing days (i.e. D8, D15), compound 63 and 0.5% HPMC were administered 30 min before the test.
Cold allodynia was assessed by measuring the responses to thermal non-nocic ptive stimulation (acetone test) on D8, D15 and D16.
Cold allodynia was assessed using the acetone test. In this test, latency of hindpaw withdrawal was measured after application of a drop of acetone to the plantar surface of both hindpaws (reaction time) and the intensity of tne response was scored (cold score).
Reaction time to the cooling effect of acetone was measured within 20 sec (cut-off) after acetone application. Responses to acetone were also graded to the following 4-point scale: 0 (no response); 1 (quick withdrawal, flick of the paw); 2 (prolonged withdrawal or marked flicking of the paw); 3 (repeated flicking of the paw with licking or biting).
For each experimental group, the results were expressed as: • The reaction time defined as the time expressed in sec required to elicit paw reaction (mean of 6 measures for each rat together±SEM). • The cumulative cold score defined as the sum of the 6 scores for each rat together±SEM. The minimum score being 0 (no response to any of the 6 trials) and the maximum possible score being 18 (repeated flicking and licking or biting of paws on each of the six trials).
Statistical significance between the treated groups and the vehicle-treated group was determined by a Two-way Repeated Measures ANOVA on Ranks followed, when the F value is significant, by an appropriate post-hoc comparison (Bonferroni's test sing SigmaStet software. The significance level was p<0.05. Statistical analyses were done using SigmaStet software.

[5] = system: patients treated with paclitaxel; settings: paclitaxel dose 135 mg/m^2; cited from earlier work
[6] = 0.5% HPMC/Oxaliplatin-treated group, D8
[7] = 0.5% HPMC/Oxaliplatin-treated group, D15
[8] = 0.5% HPMC/Oxaliplatin-treated group, D16
[9] = paclitaxel 2 mg/kg i.p. during 5 days
[10] = paclitaxel 2 mg/kg i.p. once daily during 5 days, mice

Structure (SMILES): Cc1cc(OCCN2CCOCC2)nn1-c1ccc2ccccc2c1 [Compound 63, 4-{2-[5-Methyl-1-(naphthalen-2-yl)-1H-pyrazol-3-yloxy]ethyl}morpholine]
mechanical response of control (paclitaxel-vehicle treated) animals ([1]; 64 mg/kg s.c. single injection on day 10 after first paclitaxel-vehicle injection): did not affect the mechanical response
expression of mechanical allodynia induced by paclitaxel (threshold force for hind paw withdrawal) ([1]; 64 mg/kg s.c. single injection on day 10 after paclitaxel 2 mg/kg i.p. days 1-5): inhibited the expression of mechanical aliodynia induced by paclitaxel
response of the animals to acetone, co-administration with paclitaxel-vehicle ([2]; 64 mg/kg s.c. 30 min before each paclitaxel-vehicle injection, days 1-5, vs paclitaxel-vehicle + saline): did not significantly modify the response of the animals to acetone
response to acetone of control (paclitaxel-vehicle treated) animals ([2]; 64 mg/kg s.c. single injection on day 10, paclitaxel-vehicle treated mice): did not afex: the response to acetone
development of cold allodynia induced by paclitaxel (acetone test) ([2]; co-administration: 64 mg/kg s.c. 30 min before each paclitaxel 2 mg/kg i.p. injection, days 1-5, mice): inhibited the development of cold allodynia induced by paclitaxel
expression of paclitaxel-induced cold allodynia (duration of hind paw licking/biting, acetone test) ([2]; single s.c. injection 32-128 mg/kg on day 10 after paclitaxel 2 mg/kg i.p. days 1-5, mice, vs saline): inhibited the expression of paclitaxel-induced cold allodynia
von Frey pressure response, acute treatment ([3]; 64 mg/kg on week 5, 50 minutes before the test, cisplatin 1 mg/kg once a week for 5 weeks): reverted the effect induced by cisplatin to basal levels
development of mechanical allodynia, preventive treatment ([3]; coadministration of 25 mg/kg twice a day, one day per week, same days as cisplatin 1 mg/kg): prevented the development of mechanical allodynia by cisplatin
reaction time of paw withdrawal (acetone test), curative treatment ([4]; 20 mg/kg i.p. daily D8-D15): low effect
cumulative cold score (acetone test), curative treatment ([4]; 40 mg/kg i.p. daily D8-D15): intermediate effect
reaction time of paw withdrawal (acetone test), curative treatment ([4]; 40 mg/kg i.p. daily D8-D15): intermediate effect
reaction time of paw withdrawal (acetone test), preventive treatment ([4]; 40 mg/kg i.p. twice a day from D-2 to D15, oxaliplatin 3 mg/kg i.p., rats): induced a beneficial effect
cumulative cold score (acetone test) ([4]; curative, 20 mg/kg i.p., D8): 4.3±0.6
cumulative cold score (acetone test) ([4]; curative, 80 mg/kg i.p. daily D8-D15, D15): 1.8±0.3
reaction time of paw withdrawal (acetone test) ([4]; curative, 80 mg/kg i.p. daily D8-D15, D15, oxaliplatin 3 mg/kg i.p., rats): 17.5 ± 0.5 s
reaction time of paw withdrawal (acetone test) ([4]; curative, 80 mg/kg i.p. daily D8-D15, D16 (24 h after last dose), oxaliplatin 3 mg/kg i.p., rats): 15.5 ± 1.0 s
cumulative cold score (acetone test) ([4]; curative, 80 mg/kg i.p. daily D8-D15, D16, 24 hours after the last injection): 3.1±0.6
reaction time of paw withdrawal (acetone test) ([4]; curative, 80 mg/kg i.p. daily from D8, D8, oxaliplatin 3 mg/kg i.p., rats): 19.1 ± 0.3 s
cumulative cold score (acetone test) ([4]; curative, 80 mg/kg i.p., D8): 1.0±0.4
cumulative cold score (acetone test) ([4]; preventive, 40 mg/kg i.p. twice a day D-2 to D15, D8): 2.3±0.6
cumulative cold score (acetone test) ([4]; preventive, 40 mg/kg i.p. twice a day D-2 to D15, D15): 3.0±0.6
cumulative cold score (acetone test) ([4]; preventive, 40 mg/kg i.p. twice a day D-2 to D15, D16): 3.5±0.7

Structure (SMILES): O=C1[O][Pt]2([NH][C@@H]3CCCC[C@H]3[NH]2)[O]C1=O [Oxaliplatin, reference compound]
cumulative cold score (acetone test) [4, 6]: 5.0±0.8
reaction time of paw withdrawal (acetone test) [4, 6]: 14.7 ± 0.9 s
cumulative cold score (acetone test) [4, 7]: 7.0±1.2
reaction time of paw withdrawal (acetone test) [4, 7]: 11.5 ± 1.6 s
cumulative cold score (acetone test) [4, 8]: 6.7±0.9
reaction time of paw withdrawal (acetone test) [4, 8]: 11.5 ± 0.9 s
decrease in the reaction time of paw withdrawal as compared to the HPMC/distilled water-treated group ([4]; D8): −19%
decrease in the reaction time of paw withdrawal as compared to the HPMC/distilled water-treated group ([4]; D15): −37%
decrease in the reaction time of paw withdrawal as compared to the HPMC/distilled water-treated group ([4]; D16): −36%

animals showing a reduction of the mechanical threshold [1, 9]: 96%
non-responder animals (mechanical threshold on day 10 not lower than pretreatment) [1, 9]: about 4%
induction of mechanical allodynia (threshold force for paw withdrawal, Von Frey test) ([1]; paclitaxel 2 mg/kg i.p. during 5 days, day 10): induced mechanical allodynia
animals with significantly increased time licking/biting the stimulated paw (paclitaxel-responder animals) [2, 10]: 67%
paclitaxel-treated animals that did not show cold allodynia [2, 10]: 33%
Structure (SMILES): CC(=O)O[C@H]1C(=O)[C@@]2(C)[C@H]([C@H](OC(=O)c3ccccc3)[C@]3(O)C[C@H](OC(=O)[C@H](O)[C@@H](NC(=O)c4ccccc4)c4ccccc4)C(C)=C1C3(C)C)[C@]1(OC(C)=O)CO[C@@H]1C[C@@H]2O [Paclitaxel]
patients progressing to dose-limiting neurotoxicity [5]: 0%
